According to US5476944A, “Derivatives of cyclic phenolic thioethers” (G. D. Searle & Co., priority 1994, dated 1995):

Target: T1, cellular COX-II (Homo sapiens, UniProt P35354)
T1 construct: stimulated human fetal dermal fibroblasts (HFDF, derived from primary cell cultures); endogenous in cells; host or cells: human fetal dermal fibroblasts (HFDF), primary, stimulated with IL-1 beta
T1 sequence (P35354 18-604): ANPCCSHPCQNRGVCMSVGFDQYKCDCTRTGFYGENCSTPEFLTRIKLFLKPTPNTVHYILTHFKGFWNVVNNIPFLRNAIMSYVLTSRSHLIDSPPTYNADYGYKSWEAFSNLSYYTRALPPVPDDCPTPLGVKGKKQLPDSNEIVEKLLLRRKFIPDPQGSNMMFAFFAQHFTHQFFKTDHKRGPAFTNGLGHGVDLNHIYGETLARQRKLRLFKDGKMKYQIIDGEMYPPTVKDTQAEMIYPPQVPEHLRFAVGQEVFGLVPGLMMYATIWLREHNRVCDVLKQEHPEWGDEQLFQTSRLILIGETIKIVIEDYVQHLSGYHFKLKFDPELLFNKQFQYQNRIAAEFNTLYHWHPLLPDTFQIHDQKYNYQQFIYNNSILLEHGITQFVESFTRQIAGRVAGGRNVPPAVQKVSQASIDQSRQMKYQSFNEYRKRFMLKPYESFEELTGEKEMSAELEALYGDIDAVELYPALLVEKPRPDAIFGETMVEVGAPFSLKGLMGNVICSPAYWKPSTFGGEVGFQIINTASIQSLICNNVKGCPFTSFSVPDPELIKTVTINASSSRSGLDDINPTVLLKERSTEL
Experiment: Cellular COX-II Assay (Cell Fibroblast Assay), IL-1 stimulated human fetal dermal fibroblasts, PGE2
Assay type: cell-based
Conditions: IL-1 beta stimulated human fetal dermal fibroblasts
Protocol: The compounds of the invention are evaluated with respect to the inhibition of cellular COX-II in vitro according to the following Cellular COX-II Assay (Cell Fibroblast Assay).
Cellular COX-II Assay (Cell Fibroblast Assay)
Inhibition of cellular COX-II by test compounds is determined using stimulated human fetal dermal fibroblasts (HFDF, derived from primary cell cultures). Fibroblasts are cultured in microtiter wells at 1.5×10^4 cells/well in Dulbecco's Modified Eagle's Media (DMEM)(Gibco/BRL, Gaithersburg, Md. Sigma Chemical Co., St. Louis, Mo.) containing 4500 mg glucose/L, 100 units penicillin G/ml and 0.1 mg streptomycin/ml, 4 mM L-glutamine, 25 mM Hepes and 10% Fetal Bovine Serum (Gibco/BRL, Gaithersburg, Md. Bioproducts For Science, Inc., Indianapolis,Ind.). Following a 3-day incubation at 37° C., the culture media is removed by aspiration using low vacuum, and the cells are stimulated overnight with medium containing human recombinant IL-1 (interleukin-1) beta (1 ng/ml)(Cistron, Pine Brook, N.J.). The next day, the fibroblasts are washed with Phosphate Buffered Saline, and 185 μl of DMEM is added to each well. The cells are placed in a 37° C. incubator for 15 minutes. Compounds are then added to the cells using seven half-log dilutions in duplicate determinations. Cells are incubated with test compounds at 37° C. for 30 minutes. The COX-II substrate arachidonic acid (20 μM; Nu-Chek-Prep Inc., Elysian, Minn.) is then added to the cell cultures and the plates are incubated for 10 minutes at 37° C. Supernatants are collected and Prostaglandin E2 (PGE2) production is measured by an enzyme-linked immunosorbent assay (ELISA; antibodies produced by Cayman Chemical Company, Ann Arbor, Mich.). […] PG,60
The following is a description of how the activities of the compounds of the present invention may be determined.
A run of this assay consists of one (or more) plates, each containing, along with the standard (in row A), (1) two wells of unstimulated material (in col. 12), (2) five wells of stimulated material (in col. 12), (3) seven wells (one per concentration) for indomethacin (in col. 11), and (4) two wells at each of seven concentrations for five test compounds, one of which is a repeat of indomethacin. The response (ng/ml Eicosanoid) is estimated from the Standard curve and is highest at low concentrations and decreases as the concentration increases. If the response is plotted on the y-axis and the log of the concentration is plotted on the x-axis, the dose-response pattern for these assays is typically a symmetrical, sigmoidal shaped curve. If a full range of concentrations is used, the complete sigmoidal curve may be seen, starting with an upper asymptote, falling at some degree of steepness, and then leveling off at a lower asymptote. The IC50 is defined as the concentration corresponding to a response midway between the upper and lower plateaus. A theoretic "dose-response" model is used to estimate the IC50.
The procedure described below was used to define the minimum and maximum responses for the compounds on a plate.
The procedure uses information for indomethacin and the rest of the plate in defining the minimum and maximum response. The justification for doing this is as follows. Enough runs have been done with indomethacin to determine and use a range of concentrations such that the response to the lowest concentrations is on the upper plateau of the sigmoidal curve and the response to the highest concentrations is on the lower plateau of the sigmoidal curve. For the other compounds, if a response is measured which is less than the response for the unstimulated wells, then this response may be considered to be another estimate of a minimal response. Likewise, if a response is measured which is greater than the response for the stimulated wells, then this response may be considered to be another estimate of a maximal response. Based on this reasoning, the minimum is estimated as follows: […]

- IC50: 370 nM
Structure (SMILES): CC(C)(C)c1cc(S[C@H]2CCCC[C@H]2OCC(=O)O)cc(C(C)(C)C)c1 (racemic) [Example 72, (±)cis-2-[[2-[[3,5-bis(1,1-dimethylethyl)phenyl]thio]cyclohexyl]oxy]acetic acid]
